Assay results reported in patent US20260315446A1, “ANTIFUNGAL COMPOUNDS AND USES THEREOF” (priority 2023, published 2026).
pIC50: −log10 of the molar value. ≈ marks a conversion by molar mass, not a printed value. Read-outs that look alike come from different tables or passages of the source.

Assays:
[1] = tested on: C. neoformans growth versus IL-2 in murine T cells; assay: Therapeutic index score (immunosuppressive fold change to antifungal fold change relative to FK506); parameters: species or system Cryptococcus neoformans; mouse; details: Example 3; C. neoformans H99, FK506 = 1.0
Text: To assess the therapeutic potential for these compounds, it was important to develop an approach to score and rank them based on antifungal and immunosuppressive activities. The therapeutic index score (TIscore) is a ratio of the immunosuppressive fold change to the antifungal fold change, with all values relative to the baseline FK506 activity (FIG. 6B). A TIscore of >1.0 indicates an increase in fungal specificity because the fold change of the immunosuppressive reduction is greater than the antifungal activity reduction. As an example, JH-FK-05 is 20-fold reduced for antifungal activity but about 180-fold reduced for immunosuppression. Therefore, the TIscore of JH-FK-05 is 9.1 (TIscore=182/20). The top two analogs were JH-FK-02 (TIscore=9.7) and JH-FK-05 (TIscore=9.1). Due to the similar TIscore, JH-FK-05 was prioritized to advance to animal trials on the merit of more pronounced antifungal activity compared to JH-FK-02.
Based on the in vitro fungal and mammalian calcineurin inhibition data, the panel of FK520 analogs was assessed and ranked. Therapeutic index (TI) scores were used to quantify the effects of structural modification on the compounds (Table 8). Therapeutic index scores were calculated for each analog as the ratio of relative change in immunosuppressive and antifungal activities compared to FK506 as previously utilized (see, I-Toy M J, et at. 2022. mBio 13:e0104922). This ratio of therapeutic benefit and host toxicity, or fungal and mammalian calcineurin inhibition, allowed us to quantify and rank these analogs. […] This is the greatest TI found within the library and allowed us to identify JH-FK-08 as a lead candidate for an in vivo study. Tolerability of JH-FK-08 was assessed by monitoring animal responses to drug dosing across 14 days, including changes in weight, fur condition, and behavior. A maximum dose of 40 mg/kg was tested in once a day dosing, and due to solubility limitations, the tolerability of JH-FK-08 at 60 and 80 mg/kg total daily doses was assessed by dosing two equal doses per day (FIG. 14). […] It should be noted that analogs JH-FK-12 and JH-FK-23 are also promising candidates with respective Tis of 24.7 and 24.5.

Candida albicans = assay: MIC assay (Example 3); assay type: cell-based; details: Candida albicans
Method: (§1) In vitro antifungal activity was assessed for all fungal strains in RPMI 1640 (Sigma-Aldrich R1383). MICs were measured using Clinical and Laboratory Standards Institute (CLSI) M38-A2 and M27-A3 standard in vitro antifungal susceptibility protocols. C. neoformans and A. fumigatus testing was performed at 37° C. MECs for A. fumigatus were recorded after 48 h of growth. C. albicans testing was performed at 30° C. with a uniform concentration of 2 μg/mL of fluconazole to sensitize the cells to calcineurin inhibition.
(§2) C. neoformans clinical isolate H99 and congenic-derived strain KN99α were used (see, Nielsen K, et al., 2003. Infect Immun 71:4831-4841). KN99α-derived frr1Δ deletion mutants with nourseothricin resistance markers as part of the Madhani deletion collection (NIH funding R01AI100272) were used. C. deneoformans strains used include JEC21 and derived C21F2 (CNB1-1) and C21F3 (frr1-3) strains (see, Odom A, et al., 1997. EMBO J 16:2576-2589; Moore T D, Edman J C. 1993. Mol Cell Biol 13:1962-1970; Fox D S, et al., 2001. Mol Microbiol 39:835-849). C. albicans strain SC5314 is the wild-type strain from which mutants YAG171 (rbp1/rbp1) and YAG237 (CNB1-1/CNB1) were derived (see, Cruz M C, et al., 2001. Antimicrob Agents Chemother 45:3162-3170). A. fumigatus strain akuB^Ku80 and a derived FKBP12 mutant fkbp12A were used during antifungal screening (see, Falloon K, et al., 2015. PLoS One 10:e0137869).

Cryptococcus neoformans = assay: MIC assay (Example 3); assay type: cell-based; details: Cryptococcus neoformans
Method: as §1, §2

[2] = tested on: IL-2 expression in primary mouse CD4+ T cells (mammalian calcineurin); assay: In vitro immunosuppressive activity, IL-2 expression (Example 3); assay type: cell-based; details: 72 h
Method: Modifications at the C-22 position reduce inhibition of mammalian calcineurin signaling Mammalian calcineurin inhibition was then assessed and found to be reduced for these FK520 analogs. The inhibition of mammalian calcineurin was assessed by measuring the reduction of IL-2 expression from primary mouse CD4^+ T cells cultured in the presence of FK506, FK520, or an analog. Calcineurin activity is required for T cell activation and cytokine production, and IL-2 production serves as an effective measure of mammalian calcineurin activity. After culturing mouse CD4′ T cells for 72 h, IL-2 expression was analyzed by flow cytometry to evaluate the immunosuppressive activity of the analogs. […] However, compound concentrations that permit high IL-2 expression are less likely to result in cell death.
Spleen and lymph nodes from C57BL/6 mice were collected and homogenized through a 40-μm filter. Pan-CD4^+ T cells were enriched using the MagniSort Mouse CD4 T Cell Enrichment Kit (Invitrogen). Thereafter, CD4^+CD25^−CD62L^hiCD44^lo naïve CD4^+ T cells were FACS-sorted using a MoFlo Astrios cell sorter (Beckman Coulter). Naïve CD4^+ T cells were cultured in Iscove's Modified Dulbecco's Medium supplemented with 10% fetal bovine serum (FBS), penicillin (10 U/mL), streptomycin (10 μg/mL), glutamine (2 mM), gentamicin (50 μg/mL), and β-mercaptoethanol (55 μM). Cells were cultured for 72 h on anti-hamster IgG-coated plates with hamster anti-CD3s antibodies, hamster anti-CD28 antibodies, neutralizing anti-IL-4 antibodies, recombinant IL-12 (10 ng/mL), and recombinant IL-2 (50 U/mL). During this culture, cells were incubated with serially diluted drugs suspended in DMSO.

Aspergillus fumigatus = assay: MEC assay (Example 3); details: strain akuB^Ku80
[3] = SC5314, MIC80, 30° C. with 2 μg/mL fluconazole, read-out: MIC against Candida albicans (SC5314)
[4] = MIC90, 37° C., read-out: MIC against Cryptococcus neoformans (H99)
[5] = SC5314, read-out: MIC against Candida albicans (SC5314)
[6] = read-out: MIC against Cryptococcus neoformans (H99)

SMILES | Therapeutic index [1] | MIC (Candida albicans; [3]) [µg/mL] | MIC (Cryptococcus neoformans; [4]) [µg/mL] | MIC (Cryptococcus neoformans; Table 8, read-out: H99 MIC90) [µg/mL] | pIC50 [2] | MEC against Aspergillus fumigatus (akuB^Ku80) (Aspergillus fumigatus) [µg/mL] | MIC (Candida albicans; [5]) [µg/mL] | MIC (Cryptococcus neoformans; [6]) [µg/mL]
CC[C@@H]1/C=C(\C)C[C@H](C)C[C@H](OC)[C@H]2O[C@@](O)(C(=O)C(=O)N3CCCC[C@H]3C(=O)O[C@H](/C(C)=C/C3CC[C@@H](O)[C@H](OC)C3)[C@H](C)[C@@H](O)C/C1=N/NC(=O)c1ccncc1)[C@H](C)C[C@@H]2OC (stereo partly drawn) [JH-FK-09] | 7.8 | 0.8 (≈ 0.878 µM) | 0.8 (≈ 0.878 µM) | 0.8 (≈ 0.878 µM) | 7.95 | 1.3 | – | –
CC[C@@H]1/C=C(\C)C[C@H](C)C[C@H](OC)[C@H]2O[C@@](O)(C(=O)C(=O)N3CCCC[C@H]3C(=O)O[C@H](/C(C)=C/C3CC[C@@H](O)[C@H](OC)C3)[C@H](C)[C@@H](O)C/C1=N/NC(N)=O)[C@H](C)C[C@@H]2OC (stereo partly drawn) [JH-FK-12] | 24.7 | 0.8 (≈ 0.942 µM) | 0.8 (≈ 0.942 µM) | 0.8 (≈ 0.942 µM) | 7.45 | 2.5 | – | –
CC[C@@H]1/C=C(\C)C[C@H](C)C[C@H](OC)[C@H]2O[C@@](O)(C(=O)C(=O)N3CCCC[C@H]3C(=O)O[C@H](/C(C)=C/[C@@H]3CC[C@@H](O)[C@H](OC)C3)[C@H](C)[C@@H](O)CC1=NNS(=O)(=O)c1ccc(C)cc1)[C@H](C)C[C@@H]2OC [JH-FK-13] | – | – | – | – | – | >10 | > 50 | > 50
CC[C@@H]1/C=C(\C)C[C@H](C)C[C@H](OC)[C@H]2O[C@@](O)(C(=O)C(=O)N3CCCC[C@H]3C(=O)O[C@H](/C(C)=C/C3CC[C@@H](O)[C@H](OC)C3)[C@H](C)[C@@H](O)C/C1=N/NC(=O)c1cccc(C(=O)NN)c1)[C@H](C)C[C@@H]2OC (stereo partly drawn) [JH-FK-14] | 4.9 | 0.8 (≈ 0.826 µM) | 1.6 (≈ 1.65 µM) | 1.6 (≈ 1.65 µM) | 7.85 | 0.6 | – | –
CCN/N=C1/C[C@H](O)[C@@H](C)[C@@H](/C(C)=C/C2CC[C@@H](O)[C@H](OC)C2)OC(=O)[C@@H]2CCCCN2C(=O)C(=O)[C@]2(O)O[C@H]([C@@H](OC)C[C@@H](C)C/C(C)=C/[C@H]1CC)[C@@H](OC)C[C@H]2C (stereo partly drawn) [JH-FK-16] | 8.2 | – | – | 0.4 (≈ 0.48 µM) | 8.23 | – | – | –
CCNN=C1C[C@H](O)[C@@H](C)[C@@H](/C(C)=C/[C@@H]2CC[C@@H](O)[C@H](OC)C2)OC(=O)[C@@H]2CCCCN2C(=O)C(=O)[C@]2(O)O[C@H]([C@@H](OC)C[C@@H](C)C/C(C)=C/[C@H]1CC)[C@@H](OC)C[C@H]2C [JH-FK-16] | – | – | – | – | – | 1.3 | 0.4 (≈ 0.48 µM) | 0.4 (≈ 0.48 µM)
CC[C@@H]1/C=C(\C)C[C@H](C)C[C@H](OC)[C@H]2O[C@@](O)(C(=O)C(=O)N3CCCC[C@H]3C(=O)O[C@H](/C(C)=C/C3CC[C@@H](O)[C@H](OC)C3)[C@H](C)[C@@H](O)C/C1=N/NC(=O)c1ccc(N)cc1)[C@H](C)C[C@@H]2OC (stereo partly drawn) [JH-FK-20] | 12.3 | 0.8 (≈ 0.865 µM) | 0.8 (≈ 0.865 µM) | 0.8 (≈ 0.865 µM) | 7.75 | 0.6 | – | –
CC[C@@H]1/C=C(\C)C[C@H](C)C[C@H](OC)[C@H]2O[C@@](O)(C(=O)C(=O)N3CCCC[C@H]3C(=O)O[C@H](/C(C)=C/C3CC[C@@H](O)[C@H](OC)C3)[C@H](C)[C@@H](O)C/C1=N/NC(=O)NN)[C@H](C)C[C@@H]2OC (stereo partly drawn) [JH-FK-21] | 18.9 | – | – | 1.6 (≈ 1.85 µM) | 7.26 | – | – | –
CC[C@@H]1/C=C(\C)C[C@H](C)C[C@H](OC)[C@H]2O[C@@](O)(C(=O)C(=O)N3CCCC[C@H]3C(=O)O[C@H](/C(C)=C/[C@@H]3CC[C@@H](O)[C@H](OC)C3)[C@H](C)[C@@H](O)CC1=NNC(=O)NN)[C@H](C)C[C@@H]2OC [JH-FK-21] | – | – | – | – | – | 2.5 | 0.8 (≈ 0.926 µM) | 1.6 (≈ 1.85 µM)
CC[C@@H]1/C=C(\C)C[C@H](C)C[C@H](OC)[C@H]2O[C@@](O)(C(=O)C(=O)N3CCCC[C@H]3C(=O)O[C@H](/C(C)=C/C3CC[C@@H](O)[C@H](OC)C3)[C@H](C)[C@@H](O)C/C1=N/NC(=O)CO)[C@H](C)C[C@@H]2OC (stereo partly drawn) [JH-FK-22] | 15.6 | – | – | 1.6 (≈ 1.85 µM) | 7.35 | – | – | –
CC[C@@H]1/C=C(\C)C[C@H](C)C[C@H](OC)[C@H]2O[C@@](O)(C(=O)C(=O)N3CCCC[C@H]3C(=O)O[C@H](/C(C)=C/[C@@H]3CC[C@@H](O)[C@H](OC)C3)[C@H](C)[C@@H](O)CC1=NNC(=O)CO)[C@H](C)C[C@@H]2OC [JH-FK-22] | – | – | – | – | – | 2.5 | 1.6 (≈ 1.85 µM) | 1.6 (≈ 1.85 µM)
CC[C@@H]1/C=C(\C)C[C@H](C)C[C@H](OC)[C@H]2O[C@@](O)(C(=O)C(=O)N3CCCC[C@H]3C(=O)O[C@H](/C(C)=C/C3CC[C@@H](O)[C@H](OC)C3)[C@H](C)[C@@H](O)C/C1=N/NS(C)(=O)=O)[C@H](C)C[C@@H]2OC (stereo partly drawn) [JH-FK-23] | 24.5 | 1.6 (≈ 1.81 µM) | 1.6 (≈ 1.81 µM) | 1.6 (≈ 1.81 µM) | 7.15 | 5 | – | –
